Assay results: publication PMC12343078, “PeptideMiner—neuropeptide discovery across the animal kingdom” (GigaScience, 2025)
“Also recorded” adds a separate entry of the source. Positions of bridges follow the written chain, without caps; N, C: chain ends. Non-standard residues stand in square brackets, D forms with d. Chains are numbered I, II in the order given. No end group written: not given here. Gla = N[C@@H](CC(C(=O)O)C(=O)O)C(=O)O

Target: T1, human insulin receptor-B (hIR-B) (Homo sapiens, UniProt P06213)
T1 construct: expressed in transfected cells; lysate captured on an anti-IR antibody-coated plate
Experiment: Competition binding to hIR-B against Eu-labeled human insulin
Experimental: Receptor binding was measured as described previously. […] Cells were serum-starved for 4 hours before lysis. Lysates were captured in a 96-well plate previously coated with anti-IR antibody. […] After washing, time-resolved fluorescence was measured using 340-nm excitation and 612-nm emission filters with the BMG Lab Technologies Polarstar fluorometer.

T1 sequence (P06213 28-758 limits assumed): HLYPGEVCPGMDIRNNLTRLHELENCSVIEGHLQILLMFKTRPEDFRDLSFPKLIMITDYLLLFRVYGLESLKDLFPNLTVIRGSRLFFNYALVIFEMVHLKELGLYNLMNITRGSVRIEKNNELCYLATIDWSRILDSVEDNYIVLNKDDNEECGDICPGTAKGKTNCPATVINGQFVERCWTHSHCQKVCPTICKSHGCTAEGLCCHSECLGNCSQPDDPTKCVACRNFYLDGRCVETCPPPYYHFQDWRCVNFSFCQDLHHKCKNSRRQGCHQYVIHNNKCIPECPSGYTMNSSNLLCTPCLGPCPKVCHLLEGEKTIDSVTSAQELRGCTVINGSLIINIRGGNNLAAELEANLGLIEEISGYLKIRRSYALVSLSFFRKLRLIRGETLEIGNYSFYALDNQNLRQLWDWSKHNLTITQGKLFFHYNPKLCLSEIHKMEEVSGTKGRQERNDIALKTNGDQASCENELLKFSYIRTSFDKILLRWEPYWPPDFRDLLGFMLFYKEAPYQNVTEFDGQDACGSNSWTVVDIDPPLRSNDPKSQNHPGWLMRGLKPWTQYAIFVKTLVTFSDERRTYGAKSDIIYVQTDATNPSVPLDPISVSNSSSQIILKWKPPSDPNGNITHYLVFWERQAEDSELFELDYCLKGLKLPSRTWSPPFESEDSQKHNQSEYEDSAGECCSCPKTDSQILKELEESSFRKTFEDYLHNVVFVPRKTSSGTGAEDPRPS
T1 sequence (P06213 763-1382 limits assumed): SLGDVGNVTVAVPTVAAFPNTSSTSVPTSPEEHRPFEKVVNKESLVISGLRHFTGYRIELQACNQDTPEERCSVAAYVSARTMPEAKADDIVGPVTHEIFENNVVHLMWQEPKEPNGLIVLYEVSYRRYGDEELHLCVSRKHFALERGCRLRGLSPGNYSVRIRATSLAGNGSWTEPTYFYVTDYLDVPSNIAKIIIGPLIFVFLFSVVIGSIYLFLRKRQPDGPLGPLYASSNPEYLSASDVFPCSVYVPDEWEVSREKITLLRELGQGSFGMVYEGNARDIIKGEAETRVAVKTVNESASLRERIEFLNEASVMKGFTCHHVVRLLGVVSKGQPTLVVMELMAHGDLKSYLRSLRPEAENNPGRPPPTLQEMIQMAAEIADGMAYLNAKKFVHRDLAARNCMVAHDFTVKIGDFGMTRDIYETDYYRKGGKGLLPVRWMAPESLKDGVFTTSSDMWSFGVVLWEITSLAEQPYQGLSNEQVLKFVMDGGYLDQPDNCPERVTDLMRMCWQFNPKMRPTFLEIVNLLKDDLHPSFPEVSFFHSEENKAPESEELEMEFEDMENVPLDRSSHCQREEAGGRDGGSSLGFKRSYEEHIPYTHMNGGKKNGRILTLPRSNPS

Substance | hIR-B binding, result in words
I: NSDTPKHRCVSELADQYVQLCH-NH2 / II: GIV[Gla]VCCDNPCTVATLRTFCH (disulfide I:9-II:7, I:21-II:20, II:6-II:11; C-terminus assumed) [Con-Ins G3c] | completely abolishes hIR-B binding
I: NSDTPKHRCGSELADQYVYLCHGERNDA-NH2 / II: GIV[Gla]VCCDNPCTVATLRTFCH (disulfide I:9-II:7, I:21-II:20, II:6-II:11; C-terminus assumed) [Con-Ins G4b] | low nanomolar binding
I: TNIPATLILQKHRCGSELADQYVQLCH-NH2 / II: GIV[Gla]VCCDNPCTVATLRTFCH (disulfide I:14-II:7, I:26-II:20, II:6-II:11; C-terminus assumed) [Con-Ins G7] | potent hIR-B binding; also recorded: low nanomolar binding
